Consider 28 molecules from patent US20090036448A1, “PYRIMIDINE DERIVATIVES AND METHODS OF TREATMENT RELATED TO THE USE THEREOF” (TAISHO PHARMECUTICAL CO., LTD., priority 2004, published 2009).

SMILES strings stand for the structures.

Chain of MCH receptor (Q99705 whole entry): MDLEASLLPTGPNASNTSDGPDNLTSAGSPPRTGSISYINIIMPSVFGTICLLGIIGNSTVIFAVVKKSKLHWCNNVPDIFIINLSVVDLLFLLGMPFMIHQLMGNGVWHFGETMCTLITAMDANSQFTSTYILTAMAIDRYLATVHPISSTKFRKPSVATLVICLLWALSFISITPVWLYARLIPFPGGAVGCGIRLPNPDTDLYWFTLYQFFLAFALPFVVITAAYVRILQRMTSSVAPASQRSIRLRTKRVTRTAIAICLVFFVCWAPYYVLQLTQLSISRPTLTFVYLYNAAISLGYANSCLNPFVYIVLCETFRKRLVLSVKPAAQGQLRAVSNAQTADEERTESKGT

This experiment has as its target MCH receptor (Homo sapiens, UniProt Q99705). The experiment is described as follows: Receptor binding assay with Radiolabelled MCH Ligand. Details: expressed in transfected cells; host or cells: 293 cells (human kidney, ATCC), transient transfection; crude membranes. The conditions noted are these: class by percent of control at 10^-7 M or IC50. An excerpt: In addition to the methods described herein, another means for evaluating a test compound is by determining binding affinities to the MCH receptor. This type of assay generally requires a radiolabelled ligand to the MCH receptor. Absent the use of known ligands for the MCH receptor and radiolabels thereof, compounds of Formula (I) can be labelled with a radioisotope and used in an assay for evaluating the affinity of a test compound to the MCH receptor.
A radiolabelled MCH compound of Formula (I) can be used in a screening assay to identify/evaluate compounds. In general terms, a newly synthesized or identified compound (i.e., test compound) can be evaluated for its ability to reduce binding of the “radiolabelled compound of Formula (I)” to the MCH receptor. Accordingly, the ability to compete with the “radio-labelled compound of Formula (I)” or Radiolabelled MCH Ligand for the binding to the MCH receptor directly correlates to its binding affinity of the test compound to the MCH receptor.
293 cells (human kidney, ATCC), transiently transfected with 10 μg human MCH receptor and 60 μl Lipofectamine (per 15-cm dish), are grown in the dish for 24 hours (75% confluency) with a media change and removed with 10 mL/dish of Hepes-EDTA buffer (20 mM Hepes+10 mM EDTA, pH 7.4). The cells are then centrifuged in a Beckman Coulter centrifuge for 20 minutes, 17,000 rpm (JA-25.50 rotor). Subsequently, the pellet is resuspended in 20 mM Hepes+1 mM EDTA, pH 7.4 and homogenized with a 50-mL Dounce homogenizer and again centrifuged. After removing the supernatant, the pellets can be stored at −80° C., until used in binding assay. When used in the assay, membranes are thawed on ice for 20 minutes and then 10 mL of incubation buffer (20 mM Hepes, 1 mM MgCl2, 100 mM NaCl, pH 7.4) added. The membranes are then vortexed to resuspend the crude membrane pellet and homogenized with a Brinkmann PT-3100 Polytron homogenizer for 15 seconds at setting 6. The concentration of membrane protein is determined using the BRL Bradford protein assay.
For total binding, a total volume of 50 ul of appropriately diluted membranes (diluted in assay buffer containing 50 mM Tris HCl (pH 7.4), 1 mM MgCl2, and 1 mM EDTA; 5-50 ug protein) is added to 96-well polyproylene microtiter plates followed by addition of 100 μl of assay buffer and 50 μl of Radiolabelled MCH Ligand. For nonspecific binding, 50 μl of assay buffer is added instead of 100 μl and an additional 50 μl of 10 uM cold MCH is added before 50 μl of Radiolabelled MCH Ligand is added. Plates are then incubated at room temperature for 60-120 minutes. The binding reaction is terminated by filtering assay plates through a Microplate Devices GF/C Unifilter filtration plate with a Brandell 96-well plate harvester followed by washing with cold 50 mM Tris HCl, pH 7.4 containing 0.9% NaCl. Then, the bottom of the filtration plate are sealed, 50 ul of Optiphase Supermix is added to each well, the top of the plates are sealed, and plates are counted in a Trilux MicroBeta scintillation counter. For compound competition studies, instead of adding 100 μl of assay buffer, 100 μl of appropriately diluted test compound is added to appropriate wells followed by addition of 50 μl of Radiolabelled MCH Ligand.
The test compounds are initially assayed at 1 and 0.1 μM and then at a range of concentrations chosen such that the middle dose would cause about 50% inhibition of a Radiolabelled MCH Ligand binding (i.e., IC50). Specific binding in the absence of test compound (BO) is the difference of total binding (BT) minus non-specific binding (NSB) and similarly specific binding (in the presence of test compound) (B) is the difference of displacement binding (BD) minus non-specific binding (NSB). IC50 is determined from an inhibition response curve, logit-log plot of % B/BO vs. concentration of test compound.
Ki is calculated by the Cheng and Prustoff transformation: […]
Consider `Cc1nc(N[C@H]2CC[C@@H](NS(=O)(=O)c3ccccc3OC(F)(F)F)CC2)cc(N(C)C)n1` [compound 491], for which the class was 3 (Class 3: The value of percent of control at 10^−7 M was more than 60% or the value of IC50 was more than 200 nM.). `Cc1nc(N[C@H]2CC[C@@H](NC(=O)c3ccc(OCc4ccccc4)cc3)CC2)cc(N(C)C)n1` [compound 329]: the class is reported as 3 (Class 3: The value of percent of control at 10^−7 M was more than 60% or the value of IC50 was more than 200 nM.).

As to `CC(=O)c1ccc(C(=O)N[C@H]2CC[C@@H](Nc3cc(N(C)C)nc(C)n3)CC2)s1` [compound 344], the class was 3 (Class 3: The value of percent of control at 10^−7 M was more than 60% or the value of IC50 was more than 200 nM.). As for `Cc1ccc(SC(CC(=O)c2ccc(F)cc2)C(=O)N[C@H]2CC[C@@H](Nc3cc(N(C)C)nc(C)n3)CC2)cc1` (relative stereo) [compound 311], the class is on record as 3 (Class 3: The value of percent of control at 10^−7 M was more than 60% or the value of IC50 was more than 200 nM.). As to `Cc1nc(N[C@H]2CC[C@@H](NC(=S)Nc3ccc(I)cc3)CC2)cc(N(C)C)n1` [compound 449], the class is reported as 3 (Class 3: The value of percent of control at 10^−7 M was more than 60% or the value of IC50 was more than 200 nM.). As to `Cc1nc(N[C@H]2CC[C@@H](NS(=O)(=O)c3ccc(-c4cc(C(F)(F)F)nn4C)s3)CC2)cc(N(C)C)n1` [compound 515], the class was 3 (Class 3: The value of percent of control at 10^−7 M was more than 60% or the value of IC50 was more than 200 nM.).

As for `Cc1nc(N[C@H]2CC[C@@H](NCCOc3ccccc3)CC2)cc(N(C)C)n1` [compound 381], the class is 3 (Class 3: The value of percent of control at 10^−7 M was more than 60% or the value of IC50 was more than 200 nM.). `CCOc1ccc(CN[C@H]2CC[C@@H](Nc3cc(N(C)C)nc(C)n3)CC2)cc1` [compound 371]: the class was 3 (Class 3: The value of percent of control at 10^−7 M was more than 60% or the value of IC50 was more than 200 nM.). With `Cc1nc(N[C@H]2CC[C@@H](NC(=O)Nc3ccccc3OC(F)(F)F)CC2)cc(N(C)C)n1` [compound 424], the class is recorded as 3 (Class 3: The value of percent of control at 10^−7 M was more than 60% or the value of IC50 was more than 200 nM.). For `Cc1nc(N[C@H]2CC[C@@H](NS(=O)(=O)c3cccc([N+](=O)[O-])c3)CC2)cc(N(C)C)n1` [compound 504] the value was 3 (Class 3: The value of percent of control at 10^−7 M was more than 60% or the value of IC50 was more than 200 nM.). Consider `CC(=O)OC(C(=O)N[C@H]1CC[C@@H](Nc2cc(N(C)C)nc(C)n2)CC1)c1ccccc1` (relative stereo) [compound 197], for which the class is recorded as 3 (Class 3: The value of percent of control at 10^−7 M was more than 60% or the value of IC50 was more than 200 nM.). In the case of `Cc1nc(N[C@H]2CC[C@@H](NS(=O)(=O)c3cccc(C(F)(F)F)c3)CC2)cc(N(C)C)n1` [compound 483], the class is recorded as 3 (Class 3: The value of percent of control at 10^−7 M was more than 60% or the value of IC50 was more than 200 nM.). Turning to `Cc1nc(N[C@H]2CC[C@@H](NCCSc3ccccc3)CC2)cc(N(C)C)n1` [compound 391], the class was 3 (Class 3: The value of percent of control at 10^−7 M was more than 60% or the value of IC50 was more than 200 nM.). Turning to `COC(=O)c1scc(C)c1NC(=S)N[C@H]1CC[C@@H](Nc2cc(N(C)C)nc(C)n2)CC1` [compound 451], the class is 3 (Class 3: The value of percent of control at 10^−7 M was more than 60% or the value of IC50 was more than 200 nM.). With `COc1ccc(CC(=O)N[C@H]2CC[C@@H](Nc3cc(N(C)C)nc(C)n3)CC2)cc1OC` [compound 245], the class was 3 (Class 3: The value of percent of control at 10^−7 M was more than 60% or the value of IC50 was more than 200 nM.). As to `Cc1nc(N[C@H]2CC[C@@H](NC(=O)N3CCOCC3)CC2)cc(N(C)C)n1` [compound 225], the class is 3 (Class 3: The value of percent of control at 10^−7 M was more than 60% or the value of IC50 was more than 200 nM.). Regarding `COc1ccc2[nH]c(C(=O)N[C@H]3CC[C@@H](Nc4cc(N(C)C)nc(C)n4)CC3)cc2c1` [compound 293], the class is listed as 3 (Class 3: The value of percent of control at 10^−7 M was more than 60% or the value of IC50 was more than 200 nM.).

Turning to `Cc1nc(N[C@H]2CC[C@@H](NCc3ccc(SC(F)(F)F)cc3)CC2)cc(N(C)C)n1` [compound 405], the class is given as 3 (Class 3: The value of percent of control at 10^−7 M was more than 60% or the value of IC50 was more than 200 nM.). With `COC(=O)c1cc(S(=O)(=O)N[C@H]2CC[C@@H](Nc3cc(N(C)C)nc(C)n3)CC2)oc1C` [compound 508], the class is listed as 3 (Class 3: The value of percent of control at 10^−7 M was more than 60% or the value of IC50 was more than 200 nM.). For `Cc1nc(N[C@H]2CC[C@@H](NC(=O)COc3ccccc3[N+](=O)[O-])CC2)cc(N(C)C)n1` [compound 239] the value was 3 (Class 3: The value of percent of control at 10^−7 M was more than 60% or the value of IC50 was more than 200 nM.); for `COc1ccc(Oc2ccc([N+](=O)[O-])cc2C(=O)N[C@H]2CC[C@@H](Nc3cc(N(C)C)nc(C)n3)CC2)cc1` [compound 230, N-(cis-4-{[6-(dimethylamino)-2-methylpyrimidin-4-yl]amino}cyclohexyl)-2-(4-methoxyphenoxy)-5-nitrobenzamide], 2 (Class 2: The value of percent of control at 10^−7 M was from 40% to 60% or the value of IC50 was from 50 nM to 200 nM.); for `Cc1nc(N[C@H]2CC[C@@H](NC(=O)C3CC(=O)c4ccccc43)CC2)cc(N(C)C)n1` (relative stereo) [compound 299], 3 (Class 3: The value of percent of control at 10^−7 M was more than 60% or the value of IC50 was more than 200 nM.). In the case of `Cc1nc(N[C@H]2CC[C@@H](NCc3ccc(Br)cc3)CC2)cc(N(C)C)n1` [compound 358] it was 3 (Class 3: The value of percent of control at 10^−7 M was more than 60% or the value of IC50 was more than 200 nM.); in that of `Cc1nc(N[C@H]2CC[C@@H](NC(=O)/C=C/c3ccc([N+](=O)[O-])cc3)CC2)cc(N(C)C)n1` [compound 263], 3 (Class 3: The value of percent of control at 10^−7 M was more than 60% or the value of IC50 was more than 200 nM.).

For `Cc1nc(N[C@H]2CC[C@@H](NS(=O)(=O)Cc3ccccc3)CC2)cc(N(C)C)n1` [compound 476], the class is 3 (Class 3: The value of percent of control at 10^−7 M was more than 60% or the value of IC50 was more than 200 nM.). In the case of `Cc1nc(N[C@H]2CC[C@@H](NC(=O)c3ccc(OC(F)(F)F)cc3)CC2)cc(N(C)C)n1` [compound 248] it was 3 (Class 3: The value of percent of control at 10^−7 M was more than 60% or the value of IC50 was more than 200 nM.); in that of `Cc1nc(N[C@H]2CC[C@@H](NC(=O)CC(C)C(F)(F)F)CC2)cc(N(C)C)n1` (relative stereo) [compound 314], 3 (Class 3: The value of percent of control at 10^−7 M was more than 60% or the value of IC50 was more than 200 nM.); in that of `Cc1nc(N[C@H]2CC[C@@H](NCc3ccc4c(c3)C(=O)c3ccccc3C4=O)CC2)cc(N(C)C)n1` [compound 353], 3 (Class 3: The value of percent of control at 10^−7 M was more than 60% or the value of IC50 was more than 200 nM.).
